Experimental data from ChEMBL document CHEMBL5649169 (ChemMedChem, 2018).

Assays:
[1] = target: Stalled ribosome sensor GCN1 (Homo sapiens) (UniProt Q92616)
[2] = target: Eukaryotic translation initiation factor 3 subunit J (Homo sapiens) (UniProt O75822)
[3] = target: Succinate dehydrogenase [ubiquinone] flavoprotein subunit, mitochondrial (Homo sapiens) (UniProt P31040)
[4] = target: 26S proteasome regulatory subunit 10B (Homo sapiens) (UniProt P62333)
[5] = target: Serine/threonine-protein kinase LATS1 (Homo sapiens) (UniProt O95835)
[6] = target: Serine/threonine-protein kinase Nek2 (Homo sapiens) (UniProt P51955)
Homo sapiens [7] = organism: Homo sapiens
[8] = target: 116 kDa U5 small nuclear ribonucleoprotein component (Homo sapiens) (UniProt Q15029)
[9] = target: Thiol S-methyltransferase TMT1A (Homo sapiens) (UniProt Q9H8H3)
[10] = target: Sodium/potassium-transporting ATPase subunit alpha-1 (Homo sapiens) (UniProt P05023)
[11] = target: Proliferating cell nuclear antigen (Homo sapiens) (UniProt P12004)
[12] = target: Serine/arginine-rich splicing factor 1 (Homo sapiens) (UniProt Q07955)
[13] = target: Small ribosomal subunit protein eS25 (Homo sapiens) (UniProt P62851)
[14] = target: Ketosamine-3-kinase (Homo sapiens) (UniProt Q9HA64)
[15] = target: Neurosecretory protein VGF (Homo sapiens) (UniProt O15240)
Homo sapiens [16] = organism: Homo sapiens; remark: listed apart in the source
[17] = target: Elongation factor 1-gamma (Homo sapiens) (UniProt P26641)
[18] = target: Large ribosomal subunit protein eL38 (Homo sapiens) (UniProt P63173)
[19] = target: Glycogen phosphorylase, brain form (Homo sapiens) (UniProt P11216)
[20] = target: Large ribosomal subunit protein uL29 (Homo sapiens) (UniProt P42766)
[21] = target: Eukaryotic initiation factor 4A-I (Homo sapiens) (UniProt P60842)
[22] = target: Tyrosine-protein kinase Lck (Homo sapiens) (UniProt P06239)
[23] = target: THUMP domain-containing protein 1 (Homo sapiens) (UniProt Q9NXG2)
[24] = target: FACT complex subunit SSRP1 (Homo sapiens) (UniProt Q08945)
[25] = target: Tyrosine--tRNA ligase, cytoplasmic (Homo sapiens) (UniProt P54577)
[26] = target: Monocarboxylate transporter 1 (Homo sapiens) (UniProt P53985)
[27] = target: Multifunctional protein CAD (Homo sapiens) (UniProt P27708)
[28] = target: Succinate dehydrogenase [ubiquinone] iron-sulfur subunit, mitochondrial (Homo sapiens) (UniProt P21912)
[29] = target: TBC1 domain family member 5 (Homo sapiens) (UniProt Q92609)
Homo sapiens [30] = organism: Homo sapiens; remark: listed apart in the source
[31] = target: Phosphatidylserine synthase 1 (Homo sapiens) (UniProt P48651)
[32] = target: Band 4.1-like protein 2 (Homo sapiens) (UniProt O43491)
[33] = target: Activin receptor type-1B (Homo sapiens) (UniProt P36896)
[34] = target: Peroxiredoxin-2 (Homo sapiens) (UniProt P32119)
[35] = target: Glutaryl-CoA dehydrogenase, mitochondrial (Homo sapiens) (UniProt Q92947)
[36] = target: Phosphatidylinositol 5-phosphate 4-kinase type-2 alpha (Homo sapiens) (UniProt P48426)
[37] = target: Secretory carrier-associated membrane protein 3 (Homo sapiens) (UniProt O14828)
[38] = target: Cyclin-dependent kinase 4 (Homo sapiens) (UniProt P11802)
[39] = target: Mitochondrial Rho GTPase 2 (Homo sapiens) (UniProt Q8IXI1)
[40] = target: Protein kinase C alpha type (Homo sapiens) (UniProt P17252)
Homo sapiens [41] = organism: Homo sapiens; remark: listed apart in the source
[42] = target: Large ribosomal subunit protein eL21 (Homo sapiens) (UniProt P46778)
Cyclin-T2 (Homo sapiens) = Cyclin-T2 (Homo sapiens) (UniProt O60583)
[43] = target: Cytochrome c oxidase subunit 6C (Homo sapiens) (UniProt P09669)
[44] = target: Dolichyl-diphosphooligosaccharide--protein glycosyltransferase subunit 2 (Homo sapiens) (UniProt P04844)
[45] = target: CYFIP-related Rac1 interactor B (Homo sapiens) (UniProt Q9NUQ9)
[46] = target: Serine/threonine-protein kinase Nek9 (Homo sapiens) (UniProt Q8TD19)
[47] = target: Prohibitin 1 (Homo sapiens) (UniProt P35232)
Note: assay method not described here.

Sequence of Eukaryotic initiation factor 4A-I (Homo sapiens) (P60842 whole entry): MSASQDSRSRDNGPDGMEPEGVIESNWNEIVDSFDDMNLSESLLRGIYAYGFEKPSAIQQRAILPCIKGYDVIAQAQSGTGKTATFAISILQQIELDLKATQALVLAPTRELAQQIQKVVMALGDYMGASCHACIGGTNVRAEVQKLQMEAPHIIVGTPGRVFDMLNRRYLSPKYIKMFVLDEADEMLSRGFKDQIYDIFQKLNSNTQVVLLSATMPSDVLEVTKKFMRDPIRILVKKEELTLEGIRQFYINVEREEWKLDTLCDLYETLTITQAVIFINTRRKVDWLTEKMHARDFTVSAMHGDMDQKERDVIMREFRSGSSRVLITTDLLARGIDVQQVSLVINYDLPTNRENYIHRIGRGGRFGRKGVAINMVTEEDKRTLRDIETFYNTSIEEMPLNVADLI
Sequence of Succinate dehydrogenase [ubiquinone] flavoprotein subunit, mitochondrial (Homo sapiens) (P31040 whole entry): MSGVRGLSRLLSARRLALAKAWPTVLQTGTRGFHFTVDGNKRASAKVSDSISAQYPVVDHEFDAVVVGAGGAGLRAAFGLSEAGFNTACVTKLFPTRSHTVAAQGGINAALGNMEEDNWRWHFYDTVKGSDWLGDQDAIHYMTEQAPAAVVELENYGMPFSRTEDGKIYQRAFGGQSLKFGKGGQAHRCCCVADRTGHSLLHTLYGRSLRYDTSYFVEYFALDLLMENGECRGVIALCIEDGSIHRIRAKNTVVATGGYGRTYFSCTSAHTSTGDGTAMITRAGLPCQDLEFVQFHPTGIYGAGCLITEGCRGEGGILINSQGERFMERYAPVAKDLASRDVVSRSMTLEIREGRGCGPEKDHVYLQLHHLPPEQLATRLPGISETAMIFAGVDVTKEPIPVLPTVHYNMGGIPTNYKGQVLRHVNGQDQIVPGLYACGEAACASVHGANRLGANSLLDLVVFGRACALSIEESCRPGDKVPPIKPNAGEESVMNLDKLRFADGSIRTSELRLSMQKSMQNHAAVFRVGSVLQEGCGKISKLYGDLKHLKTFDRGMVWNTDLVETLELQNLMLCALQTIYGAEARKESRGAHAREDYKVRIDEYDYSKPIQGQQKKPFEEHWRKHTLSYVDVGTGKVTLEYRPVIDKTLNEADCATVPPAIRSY
Sequence of FACT complex subunit SSRP1 (Homo sapiens) (Q08945 whole entry, one chain of several): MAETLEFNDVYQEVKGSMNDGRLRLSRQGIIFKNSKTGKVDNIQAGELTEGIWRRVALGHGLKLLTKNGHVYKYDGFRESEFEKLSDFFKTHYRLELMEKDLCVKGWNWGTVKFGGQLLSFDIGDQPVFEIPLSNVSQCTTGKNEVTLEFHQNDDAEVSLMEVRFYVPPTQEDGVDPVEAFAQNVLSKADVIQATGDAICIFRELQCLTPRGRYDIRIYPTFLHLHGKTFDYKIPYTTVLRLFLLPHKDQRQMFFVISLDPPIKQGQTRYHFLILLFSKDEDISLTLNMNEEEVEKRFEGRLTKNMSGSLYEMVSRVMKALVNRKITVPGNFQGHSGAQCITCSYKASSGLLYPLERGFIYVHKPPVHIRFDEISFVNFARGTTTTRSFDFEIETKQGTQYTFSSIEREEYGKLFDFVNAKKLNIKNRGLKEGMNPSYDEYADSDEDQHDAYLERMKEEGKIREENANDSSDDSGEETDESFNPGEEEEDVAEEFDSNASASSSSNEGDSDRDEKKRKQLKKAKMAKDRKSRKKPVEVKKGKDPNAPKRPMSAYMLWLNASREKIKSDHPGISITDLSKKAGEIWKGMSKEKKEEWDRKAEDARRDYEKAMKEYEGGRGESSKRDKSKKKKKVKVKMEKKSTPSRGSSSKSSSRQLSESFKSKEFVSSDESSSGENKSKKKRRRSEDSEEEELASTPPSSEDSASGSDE
Sequence of Serine/threonine-protein kinase Nek2 (Homo sapiens) (P51955 whole entry): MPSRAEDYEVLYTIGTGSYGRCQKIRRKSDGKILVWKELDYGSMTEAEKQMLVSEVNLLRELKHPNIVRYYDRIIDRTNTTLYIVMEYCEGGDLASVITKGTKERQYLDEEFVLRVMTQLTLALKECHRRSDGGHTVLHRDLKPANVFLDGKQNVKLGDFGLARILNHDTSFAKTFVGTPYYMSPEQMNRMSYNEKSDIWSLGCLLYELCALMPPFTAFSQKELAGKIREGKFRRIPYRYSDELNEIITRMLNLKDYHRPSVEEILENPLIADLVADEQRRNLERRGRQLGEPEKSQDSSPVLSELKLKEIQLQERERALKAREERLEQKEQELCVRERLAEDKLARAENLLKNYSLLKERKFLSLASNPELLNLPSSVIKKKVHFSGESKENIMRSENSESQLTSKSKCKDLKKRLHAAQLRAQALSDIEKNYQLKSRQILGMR
Sequence of Tyrosine-protein kinase Lck (Homo sapiens) (P06239 2-509 limits assumed): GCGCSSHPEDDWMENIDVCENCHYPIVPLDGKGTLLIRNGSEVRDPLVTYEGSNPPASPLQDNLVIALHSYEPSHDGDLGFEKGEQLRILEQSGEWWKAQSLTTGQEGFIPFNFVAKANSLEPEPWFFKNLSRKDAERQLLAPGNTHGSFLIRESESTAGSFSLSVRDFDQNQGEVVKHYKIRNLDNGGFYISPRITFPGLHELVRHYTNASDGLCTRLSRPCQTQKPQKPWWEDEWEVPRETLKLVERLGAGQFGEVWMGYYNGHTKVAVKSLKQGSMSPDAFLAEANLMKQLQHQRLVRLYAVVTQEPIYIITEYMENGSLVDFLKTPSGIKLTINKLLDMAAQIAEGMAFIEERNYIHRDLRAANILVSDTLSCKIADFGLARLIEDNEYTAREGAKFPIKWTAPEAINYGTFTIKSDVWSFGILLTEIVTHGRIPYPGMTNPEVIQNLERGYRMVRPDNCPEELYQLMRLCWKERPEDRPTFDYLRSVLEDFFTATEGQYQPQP
Sequence of TBC1 domain family member 5 (Homo sapiens) (Q92609 whole entry, the tested form may be a part): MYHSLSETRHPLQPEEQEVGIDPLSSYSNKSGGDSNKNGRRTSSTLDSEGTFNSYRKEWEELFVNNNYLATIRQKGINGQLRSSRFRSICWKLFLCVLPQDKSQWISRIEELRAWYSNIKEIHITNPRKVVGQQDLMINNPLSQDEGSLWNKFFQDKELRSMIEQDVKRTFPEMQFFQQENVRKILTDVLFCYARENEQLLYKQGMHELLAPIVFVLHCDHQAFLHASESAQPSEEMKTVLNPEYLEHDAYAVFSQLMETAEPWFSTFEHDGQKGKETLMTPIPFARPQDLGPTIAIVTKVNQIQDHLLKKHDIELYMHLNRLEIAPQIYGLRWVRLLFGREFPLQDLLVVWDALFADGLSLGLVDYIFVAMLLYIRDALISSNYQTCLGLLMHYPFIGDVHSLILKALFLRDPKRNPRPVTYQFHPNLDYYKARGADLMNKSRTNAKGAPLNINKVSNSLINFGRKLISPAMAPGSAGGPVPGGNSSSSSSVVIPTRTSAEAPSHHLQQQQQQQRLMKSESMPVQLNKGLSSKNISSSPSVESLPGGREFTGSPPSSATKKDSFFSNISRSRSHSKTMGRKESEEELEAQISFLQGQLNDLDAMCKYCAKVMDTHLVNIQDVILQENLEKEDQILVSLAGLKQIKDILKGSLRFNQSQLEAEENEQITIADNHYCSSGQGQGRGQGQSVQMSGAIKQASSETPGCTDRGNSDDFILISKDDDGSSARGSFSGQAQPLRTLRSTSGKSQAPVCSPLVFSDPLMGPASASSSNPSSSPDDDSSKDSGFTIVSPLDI
Sequence of THUMP domain-containing protein 1 (Homo sapiens) (Q9NXG2 whole entry, the tested form may be a part): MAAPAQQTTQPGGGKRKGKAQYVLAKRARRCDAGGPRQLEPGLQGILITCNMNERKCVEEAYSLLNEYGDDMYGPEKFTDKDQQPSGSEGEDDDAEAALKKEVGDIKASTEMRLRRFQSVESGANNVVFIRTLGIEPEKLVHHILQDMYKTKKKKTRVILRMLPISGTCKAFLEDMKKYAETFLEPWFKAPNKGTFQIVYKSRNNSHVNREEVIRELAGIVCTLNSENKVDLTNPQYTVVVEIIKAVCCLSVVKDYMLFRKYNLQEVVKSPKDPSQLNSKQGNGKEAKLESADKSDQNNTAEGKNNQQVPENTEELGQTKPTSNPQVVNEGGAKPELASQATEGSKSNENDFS
Sequence of Cyclin-dependent kinase 4 (Homo sapiens) (P11802 whole entry): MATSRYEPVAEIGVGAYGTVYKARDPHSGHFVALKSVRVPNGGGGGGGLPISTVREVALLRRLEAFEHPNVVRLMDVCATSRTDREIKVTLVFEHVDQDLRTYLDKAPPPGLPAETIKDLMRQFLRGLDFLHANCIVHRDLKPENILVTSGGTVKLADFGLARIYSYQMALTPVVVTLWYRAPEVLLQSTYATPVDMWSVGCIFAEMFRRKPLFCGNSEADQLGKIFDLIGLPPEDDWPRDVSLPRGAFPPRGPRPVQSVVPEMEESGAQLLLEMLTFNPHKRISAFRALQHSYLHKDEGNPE
Sequence of Tyrosine--tRNA ligase, cytoplasmic (Homo sapiens) (P54577 whole entry): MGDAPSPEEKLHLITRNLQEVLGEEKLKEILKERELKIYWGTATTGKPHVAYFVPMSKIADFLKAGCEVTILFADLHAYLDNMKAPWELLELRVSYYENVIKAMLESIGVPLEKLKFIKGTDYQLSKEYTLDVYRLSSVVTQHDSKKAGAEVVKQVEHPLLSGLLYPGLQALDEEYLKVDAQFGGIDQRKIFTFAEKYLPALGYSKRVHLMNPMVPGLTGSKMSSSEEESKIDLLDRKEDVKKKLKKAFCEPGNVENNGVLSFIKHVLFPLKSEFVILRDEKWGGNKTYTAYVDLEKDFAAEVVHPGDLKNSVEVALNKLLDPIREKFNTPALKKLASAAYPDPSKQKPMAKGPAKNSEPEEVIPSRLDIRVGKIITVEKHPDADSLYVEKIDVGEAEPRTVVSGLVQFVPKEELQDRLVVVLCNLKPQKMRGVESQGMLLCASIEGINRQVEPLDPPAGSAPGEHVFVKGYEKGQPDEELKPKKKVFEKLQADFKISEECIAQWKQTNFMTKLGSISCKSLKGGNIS
Sequence of Peroxiredoxin-2 (Homo sapiens) (P32119 whole entry): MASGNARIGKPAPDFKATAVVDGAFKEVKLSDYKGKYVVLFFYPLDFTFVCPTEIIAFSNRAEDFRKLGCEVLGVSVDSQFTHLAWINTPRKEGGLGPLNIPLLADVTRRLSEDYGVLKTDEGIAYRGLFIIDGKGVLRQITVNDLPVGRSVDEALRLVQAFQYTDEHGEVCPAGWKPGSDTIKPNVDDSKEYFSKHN

Cc1ccc(C(=O)Nc2cccc(C(F)(F)F)c2)cc1Nc1nc(-c2cccnc2)nc2c1cnn2C
ED50 [1]: 85 nM
ED50 [2]: 126 nM
ED50 [3]: 120 nM
ED50 [4]: 43400 nM
ED50 [5]: 1.86 nM
ED50 [6]: 11 nM
ED50 (Homo sapiens [7]): 8110 nM
ED50 [8]: 108 nM
ED50 [9]: 30400 nM
ED50 [10]: 6.82 nM
ED50 [11]: 3510 nM
ED50 [12]: 9120 nM
ED50 [13]: 2640 nM
ED50 [14]: 277000 nM
ED50 [15]: 2220 nM
ED50 (Homo sapiens [16]): 322000 nM
ED50 [17]: 11.4 nM
ED50 [18]: 8360 nM
ED50 [19]: 39.5 nM
ED50 [20]: 64900 nM
ED50 [21]: 24.1 nM
ED50 [22]: 1360 nM
ED50 [23]: 101000 nM
ED50 [24]: 2.23 nM
ED50 [25]: 157 nM
ED50 [26]: 48.2 nM
ED50 [27]: 2.65 nM
ED50 [28]: 93100 nM
ED50 [29]: 24000 nM
ED50 (Homo sapiens [30]): 106000 nM
ED50 [31]: 6640 nM
ED50 [32]: 5.41 nM
ED50 [33]: 177 nM
ED50 [34]: 8000 nM
ED50 [35]: 7400 nM
ED50 [36]: 99.3 nM
ED50 [37]: 2.92 nM
ED50 [38]: 0.606 nM
ED50 [39]: 1140 nM
ED50 [40]: 151 nM
ED50 (Homo sapiens [41]): 3570 nM
ED50 [42]: 1640 nM
ED50 (Cyclin-T2 (Homo sapiens)): 12800 nM
ED50 [43]: 16200 nM
ED50 [44]: 874 nM
ED50 [45]: 4850 nM
ED50 [46]: 163 nM
ED50 [47]: 6340 nM

Cc1ccc(C(=O)Nc2cccc(C(F)(F)F)c2)cc1Nc1nc(-c2cccnc2)nc2nn(C)cc12
ED50 [1]: 57.9 nM
ED50 [2]: 540 nM
ED50 [3]: 2360 nM
ED50 [4]: 164 nM
ED50 [5]: 87.8 nM
ED50 [6]: 324 nM
ED50 (Homo sapiens [7]): 13100 nM
ED50 [8]: 59.3 nM
ED50 [9]: 2970 nM
ED50 [10]: 553 nM
ED50 [11]: 502 nM
ED50 [12]: 56.2 nM
ED50 [13]: 200 nM
ED50 [14]: 18.3 nM
ED50 [15]: 2660 nM
ED50 (Homo sapiens [16]): 71.8 nM
ED50 [17]: 0.491 nM
ED50 [18]: 27.4 nM
ED50 [19]: 7000 nM
ED50 [20]: 7.71 nM
ED50 [21]: 58100 nM
ED50 [22]: 7840 nM
ED50 [23]: 75000 nM
ED50 [24]: 3600 nM
ED50 [25]: 57.2 nM
ED50 [26]: 2980 nM
ED50 [27]: 4.48 nM
ED50 [28]: 191000 nM
ED50 [29]: 26.5 nM
ED50 (Homo sapiens [30]): 14700 nM
ED50 [31]: 84.5 nM
ED50 [32]: 338 nM
ED50 [33]: 59.1 nM
ED50 [34]: 6920 nM
ED50 [35]: 169 nM
ED50 [36]: 83400 nM
ED50 [37]: 1010 nM
ED50 [38]: 10100 nM
ED50 [39]: 97000 nM
ED50 [40]: 2.01 nM
ED50 (Homo sapiens [41]): 61 nM
ED50 [42]: 9950 nM
ED50 (Cyclin-T2 (Homo sapiens)): 63.2 nM
ED50 [43]: 12 nM
ED50 [44]: 60.3 nM
ED50 [45]: 43000 nM
ED50 [46]: 51.9 nM
ED50 [47]: 1940 nM
